Experimental findings from patent US20250017889A1, “INHIBITORS OF P1B-TYPE ATPASES” (THE CURATORS OF THE UNIVERSITY OF MISSOURI, priority 2021, published 2025) are described below.

The subject of series [1] is B16 melanoma lung tumors. Briefly: Melanin production in B16 melanoma tumors on the lungs of mice. The class given is in vivo, C57BL/6 mice. Conditions: 50 mg/kg subcutaneously every other day for 7 days. The procedure: Previous studies have shown that ATP7A is essential for copper delivery into the secretory pathway to tyrosinase, a copper-dependent enzyme required for melanogenesis. […] To confirm that ATP7A is required for tyrosinase activity, B16 melanoma cells were generated in which the ATP7A gene was deleted by CRISPR-CAS9 to generate ATP7A^KO cells. As expected, tyrosinase activity was absent in the B16 ATP7A^KO cells. […] Wild type B16 melanoma cells were injected by tail vein into C57BL/6 mice to establish metastatic tumors on the lungs. […] Left panel images show the lungs of three different mice immediately after dissection. In control mice, darkly pigmented melanoma nodules were readily apparent on the lungs (white arrows).

Series [2] has as its system 4T1, B16 and HEK293 cell lines. As to the kind of experiment: Cellular copper concentrations by ICP-MS. The conditions noted are these: 10 μM, 24 hours. It is filed as cell-based. The procedure:
Since ATP7A functions in copper export from cells, an inhibitor of ATP7A activity would be expected to increase cellular copper concentrations. […] After 24 hours, cellular copper concentrations were measured using inductively coupled plasma mass spectroscopy (ICP-MS).

A short description of series [3]: in vitro. Conditions: mouse. It is filed as cell-based. The procedure:
To test this hypothesis, a control compound was generated in which the sulfur atom in the thioamide was replaced with oxygen to generate a corresponding amide (MKV3-D1). […] 20C is a graph of the relationship between tyrosinase activity and compound concentration. […] 20D is a graph of the relationship between the survival of 4T1 breast cancer cells and compound concentration in the presence or absence of 10 μM copper.
Initial structural analysis focused on the importance of the sulfur in MKV3. […] It was thought that MKV3 may provide a coordinating Cu(I) ligand as a mechanism of preventing copper movement into the channel domain. To test this hypothesis, a control compound was generated in which the sulfur atom in the thioamide was replaced with oxygen to generate a corresponding amide (MKV3-D1). […] Using another assay of ATP7A inhibition, the ability of MKV3-D1 to sensitize 4T1 breast cancer cells to copper was tested.

The target in series [4] is T1, ATP7B (hATP7B) (Homo sapiens, UniProt P35670).
T1 construct: expressed in transfected cells; host or cells: B16 melanoma ATP7A^KO cells (mouse), transient transfection
T1 sequence (P35670 1-1465): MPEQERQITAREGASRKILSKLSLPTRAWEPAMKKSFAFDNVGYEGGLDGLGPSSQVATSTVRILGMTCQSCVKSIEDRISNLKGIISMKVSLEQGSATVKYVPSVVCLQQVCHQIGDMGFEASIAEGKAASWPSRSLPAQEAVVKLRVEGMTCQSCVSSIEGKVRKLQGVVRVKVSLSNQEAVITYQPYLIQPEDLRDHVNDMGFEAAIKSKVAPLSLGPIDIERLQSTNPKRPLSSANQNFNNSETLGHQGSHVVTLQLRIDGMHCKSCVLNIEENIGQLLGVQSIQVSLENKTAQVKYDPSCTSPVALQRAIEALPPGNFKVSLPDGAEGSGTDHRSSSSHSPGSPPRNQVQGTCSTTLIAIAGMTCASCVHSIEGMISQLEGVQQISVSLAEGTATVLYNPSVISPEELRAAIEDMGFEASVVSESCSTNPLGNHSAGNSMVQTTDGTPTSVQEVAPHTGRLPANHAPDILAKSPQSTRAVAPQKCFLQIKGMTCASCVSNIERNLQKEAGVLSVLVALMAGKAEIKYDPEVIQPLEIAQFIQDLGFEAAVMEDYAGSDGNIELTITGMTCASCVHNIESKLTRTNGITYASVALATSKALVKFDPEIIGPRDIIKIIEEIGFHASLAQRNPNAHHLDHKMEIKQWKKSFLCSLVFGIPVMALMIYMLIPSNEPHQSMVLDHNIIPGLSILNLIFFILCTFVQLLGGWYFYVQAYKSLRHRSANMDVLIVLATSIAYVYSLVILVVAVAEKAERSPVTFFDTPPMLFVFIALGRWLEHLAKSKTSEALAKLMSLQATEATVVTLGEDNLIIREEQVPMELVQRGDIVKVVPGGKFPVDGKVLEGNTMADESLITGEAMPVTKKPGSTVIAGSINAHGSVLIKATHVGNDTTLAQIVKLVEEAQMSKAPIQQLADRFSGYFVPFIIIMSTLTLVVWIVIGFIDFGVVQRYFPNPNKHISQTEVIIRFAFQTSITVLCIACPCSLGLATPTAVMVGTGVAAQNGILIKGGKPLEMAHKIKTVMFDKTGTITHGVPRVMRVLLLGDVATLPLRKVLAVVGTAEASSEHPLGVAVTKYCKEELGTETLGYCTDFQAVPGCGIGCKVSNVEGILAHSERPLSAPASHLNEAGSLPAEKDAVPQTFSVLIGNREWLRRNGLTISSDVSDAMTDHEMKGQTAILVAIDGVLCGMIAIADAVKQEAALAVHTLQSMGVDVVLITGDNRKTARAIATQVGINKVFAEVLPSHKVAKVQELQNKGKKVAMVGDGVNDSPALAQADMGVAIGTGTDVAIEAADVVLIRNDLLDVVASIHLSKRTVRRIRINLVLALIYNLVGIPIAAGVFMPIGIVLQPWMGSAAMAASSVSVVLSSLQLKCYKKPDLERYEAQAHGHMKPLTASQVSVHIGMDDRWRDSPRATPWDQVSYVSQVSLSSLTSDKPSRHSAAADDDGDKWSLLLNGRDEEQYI
As to the kind of experiment: Tyrosinase activation in B16 ATP7A^KO cells transfected with human ATP7B. The class given is cell-based. Conditions: 10 μM, 24 h, ATP7A^KO melanoma cells. An excerpt:
Prior studies have shown that exogenously expressed ATP7B can activate tyrosinase in cells lacking ATP7A. For these studies, a B16 melanoma cell model was used in which tyrosinase activity can be detected by in situ oxidation of L-DOPA to DOPAchrome (10A). As shown earlier, B16 cells deleted for the ATP7A gene (ATP7A^KO) completely lack tyrosinase activity (10B). […] Quantification of tyrosinase activity in these cells is shown (10G). Data represent mean±SEM; ****p<0.0001 of three independent replicates.

On to `N#CC(C(=O)Nc1cccc(C(F)(F)F)c1)C(=S)Nc1ccccc1Cl` (stereo not shown) [MKV3], for which the “pigment of melanoma nodules on the lungs” value in series [1] is listed as “very little pigment”. For the same molecule, the cellular copper concentrations entry in series [2] is given as “significantly increased”. Besides, in series [3], the CC50 was 63.1 µM. The “activation of tyrosinase activity by ATP7B” value in series [4] is “prevented activation of tyrosinase activity”.

For orientation: CC50 means the concentration at which the toxic effect on the cells reaches its halfway point. Higher therefore signals better tolerance by the cells.
